According to patent publication US7470711B2, “Piperidinyl substituted cyclohexane-1,4-diamines” (Janssen Pharmaceutica N.V., priority 2005, dated 2008):
Like-named read-outs stand apart in the source and are kept apart here.

Columns and labels:
[1] = tested on: α1a and α1d subtypes over the α1b subtype; conditions: cited from earlier work
BPH patients = conditions: large clinical trials of BPH patients; cited from earlier work
[2] = tested on: normal rats and rats with bladder hypertrophy secondary to outlet obstruction; conditions: intrathecally administered; cited from earlier work
α1b-AR = molecular target: T1, α1b-AR (Homo sapiens, UniProt P35368); assay: α1-Adrenergic receptor radio-ligand binding assay, α1b subtype; conditions: 125I-HEAT, membranes of COS-7 cells transfected with α1b subtype, rt 1 hr; read-out: Receptor Binding, Ki α1b-AR
T1 construct: expressed in transfected cells; host or cells: COS-7 cells (membranes)
T1 sequence (P35368 1-520): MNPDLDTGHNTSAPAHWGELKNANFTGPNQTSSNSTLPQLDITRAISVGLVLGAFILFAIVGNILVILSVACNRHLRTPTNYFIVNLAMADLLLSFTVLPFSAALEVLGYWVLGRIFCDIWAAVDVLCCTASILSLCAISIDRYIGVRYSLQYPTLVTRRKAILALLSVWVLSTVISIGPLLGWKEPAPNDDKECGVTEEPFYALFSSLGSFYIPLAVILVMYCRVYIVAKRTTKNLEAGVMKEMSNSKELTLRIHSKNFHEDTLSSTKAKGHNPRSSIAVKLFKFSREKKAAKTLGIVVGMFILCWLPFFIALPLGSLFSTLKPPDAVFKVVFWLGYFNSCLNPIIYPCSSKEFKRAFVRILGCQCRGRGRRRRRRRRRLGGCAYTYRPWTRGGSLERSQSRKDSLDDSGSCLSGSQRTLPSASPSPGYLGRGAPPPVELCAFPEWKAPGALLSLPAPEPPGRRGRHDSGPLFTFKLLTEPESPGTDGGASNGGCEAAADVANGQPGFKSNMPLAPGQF
Description: (§1) Membranes were prepared from COS-7 cells (African Green monkey kidney SV40-transformed cells) that had been transfected with one of the three α1-AR subtypes (Genbank accession number for the α1a subtype: AF013261; Genbank accession number for the α1b subtype: NM000679; Genbank accession number for the α1d subtype: NM000678) using the following method: COS cells from ten 100 mm tissue culture plates were scraped into a 5 mL volume of TE (a mixture of 50 mM Tris-HCl, 5 mM EDTA, pH 7.4). […] The disrupted cells were centrifuged at 1000×g for 10 min at 4° C. Supernatants were centrifuged at 34,500×g for 20 min at 4° C. The membrane pellets were suspended in a 2 mL volume of TNE (a mixture of 50 mM Tris-HCl, 5 mM EDTA and 150 mM NaCl at pH 7.4). An aliquot of the membrane suspension was stored at −70° C. until use. The protein concentration was determined using the BioRad “DC” protein assay kit following membrane solubilization with Triton X-100.
(§2) Triplicate determinations of radio-ligand binding in the presence of increasing concentrations of testing compound were made. The reagents were added to 96-well polypropylene plate wells. […] The plate was incubated at rt for 1 hr. The contents of the wells were filtered through a glass filter (type C) (GF/C) membrane Unifilter plate (Packard Instruments) using the Packard Filtermate cell harvester. The filter plates were dried in a vacuum oven for 30 min at 40° C. 25 μL Microscint 20 liquid scintillation fluid (Packard Instuments) was added to each well. The radioactive content was analyzed in the TopCount microplate scintillation counter (Packard Instruments).

α1a-AR = molecular target: T2, α1a-AR (Homo sapiens, UniProt P35348); assay: α1-Adrenergic receptor radio-ligand binding assay, α1a subtype
T2 construct: expressed in transfected cells; host or cells: COS-7 cells (membranes)
T2 sequence (P35348 1-455 isoform P35348-4): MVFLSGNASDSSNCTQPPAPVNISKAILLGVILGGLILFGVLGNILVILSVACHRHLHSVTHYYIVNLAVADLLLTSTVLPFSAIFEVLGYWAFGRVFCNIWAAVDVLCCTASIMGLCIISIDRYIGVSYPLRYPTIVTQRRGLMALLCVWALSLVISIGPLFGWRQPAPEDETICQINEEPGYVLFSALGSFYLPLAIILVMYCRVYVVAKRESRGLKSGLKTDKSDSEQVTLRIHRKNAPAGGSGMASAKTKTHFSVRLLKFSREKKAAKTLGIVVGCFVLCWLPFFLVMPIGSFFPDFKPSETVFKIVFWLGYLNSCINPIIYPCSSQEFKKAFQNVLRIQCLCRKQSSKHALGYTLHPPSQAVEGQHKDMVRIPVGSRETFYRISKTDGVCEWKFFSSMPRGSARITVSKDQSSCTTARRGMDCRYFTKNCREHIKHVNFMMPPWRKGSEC
Description: as §1, §2

α1d-AR = molecular target: T3, α1d-AR (Homo sapiens, UniProt P25100); assay: α1-Adrenergic receptor radio-ligand binding assay, α1d subtype; conditions: 125I-HEAT, membranes of COS-7 cells transfected with α1d subtype, rt 1 hr; read-out: Receptor Binding, Ki α1d-AR
T3 construct: expressed in transfected cells; host or cells: COS-7 cells (membranes)
T3 sequence (P25100 1-572): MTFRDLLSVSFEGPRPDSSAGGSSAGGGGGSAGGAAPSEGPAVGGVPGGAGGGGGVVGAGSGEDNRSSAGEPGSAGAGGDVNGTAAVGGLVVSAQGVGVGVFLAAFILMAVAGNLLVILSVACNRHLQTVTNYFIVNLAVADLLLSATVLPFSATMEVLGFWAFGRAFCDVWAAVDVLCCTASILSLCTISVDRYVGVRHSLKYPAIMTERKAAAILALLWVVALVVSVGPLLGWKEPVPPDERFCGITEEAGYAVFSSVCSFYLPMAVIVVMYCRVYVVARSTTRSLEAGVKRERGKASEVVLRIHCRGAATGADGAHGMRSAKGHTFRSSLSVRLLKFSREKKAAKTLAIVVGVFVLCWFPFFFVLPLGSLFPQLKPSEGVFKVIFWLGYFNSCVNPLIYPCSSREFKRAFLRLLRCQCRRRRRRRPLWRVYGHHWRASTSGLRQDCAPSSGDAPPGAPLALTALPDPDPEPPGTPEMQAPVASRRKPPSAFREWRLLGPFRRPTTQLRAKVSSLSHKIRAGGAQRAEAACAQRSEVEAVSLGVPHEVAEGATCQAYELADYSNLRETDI
Description: as §1, §2

| Structure (SMILES) | Ki (α1b-AR) [nM] | melting point [°C] | Ki (α1d-AR) [nM] | further results |
| --- | --- | --- | --- | --- |
| CCOc1ccccc1OCCN[C@H](C)Cc1ccc(OC)c(S(N)(=O)=O)c1 [Tamsulosin] | – | – | – | selectivity for the α1a and α1d subtypes over the α1b subtype [1]: about 15 fold; effect on obstructive and irritative symptoms (BPH patients): improvement in both obstructive and irritative symptoms; side effects seen (BPH patients): cardiovascular and erectile dysfunction side effects were seen |
| COc1cc2nc(N3CCN(C(=O)C4COc5ccccc5O4)CC3)nc(N)c2cc1OC (stereo not drawn) [doxazosin] | – | – | – | micturition pressure [2]: decrease in micturition pressure |
| O=S(=O)(N[C@H]1CC[C@@H](N2CCC(c3ccccc3OCC(F)(F)F)CC2)CC1)c1ccc(OC(F)F)cc1 [Cpd 25, 4-difluoromethoxy-N-cis-(4-{4-[2-(2,2,2-trifluoro-ethoxy)-phenyl]-piperidin-1-yl}-cyclohexyl)-benzenesulfonamide] | 76 | 196 | 2.7 | Ki (α1a-AR; 125I-HEAT, membranes of COS-7 cells transfected with α1a subtype, rt 1 hr, read-out: Receptor Binding, Ki α1a-AR): 5.4 nM |
| COc1ccc(S(=O)(=O)N[C@H]2CC[C@H](N3CCC(c4ccccc4OCC(F)F)CC3)CC2)cc1OC [Cpd 30, N-trans-(4-{4-[2-(2,2-difluoro-ethoxy)-phenyl]-piperidin-1-yl}-cyclohexyl)-3,4-dimethoxy-benzenesulfonamide] | 681 | 197 | 86 | Ki (α1a-AR): 30.5 nM |
